Experimental data from PMC11026380, “Statine-based peptidomimetic compounds as inhibitors for SARS-CoV-2 main protease (SARS-CoV‑2 Mpro)” (Scientific Reports, 2024).
“Also recorded” adds a separate entry of the source.

Legend:
SARS-CoV-2 Mpro = SARS-CoV-2 Mpro (Severe acute respiratory syndrome coronavirus 2, UniProt P0DTD1); test: biochemical; details: enzyme 1.5 μM, substrate 50 μM; for IC50 / IC50 (µM): FRET, 15 min preincubation at 37 °C; for Emax: read-out: Maximum inhibition (%), efficacy compared to negative control (vehicle, DMSO)
[1] = test system: SARS-CoV-2 B.1 lineage isolate; test: in vitro; details: human
[2] = test system: SARS-CoV-2 B.1 lineage isolate; test: microbe, parasite or virus in culture; details: Severe acute respiratory syndrome coronavirus 2, Calu-3, 24 h
[3] = test system: SARS-CoV-2 B.1 lineage isolate
in vitro = details: human
SARS-CoV-2 = details: comparator values quoted in text; cited from earlier work
[4] = Cytotoxicity by methylene blue viability assay; details: human
Calu-3 cells = test: Cytotoxicity by methylene blue viability assay; details: Calu-3 cells

| SMILES | IC50 (SARS-CoV-2 Mpro) [µM] | Emax (SARS-CoV-2 Mpro; compounds 0.001 to 1000 μM) [%] | melting point [°C] | further results |
| --- | --- | --- | --- | --- |
| COC(=O)[C@@H](O)CNC(=O)C[C@H](O)[C@H](Cc1ccccc1)NC(=O)OC(C)(C)C [Compound 7d] | 0.924 | > 70 | 65 to 66 | IC50 (µM) (SARS-CoV-2 Mpro): sub-micromolar range; selectivity ratio [1]: > 114; EC50 [2]: 1.76 ± 0.3 µM; Inhibition of SARS-CoV-2 replication [3]: roughly 80%; CC50 at 72 h (in vitro): > 200 µM |
| COC(=O)[C@H](COC(C)=O)NC(=O)C[C@H](OC(C)=O)[C@H](Cc1ccccc1)NC(=O)OC(C)(C)C [Compound 8a] | 1000 | 50 | 97 to 98 |  |
| COC(=O)[C@H](Cc1ccccc1)NC(=O)C[C@H](O)[C@H](Cc1ccccc1)NC(=O)OC(C)(C)C |  |  | 79 to 80 |  |
| COC(=O)[C@H](Cc1ccc(O)cc1)NC(=O)C[C@H](O)[C@H](Cc1ccccc1)NC(=O)OC(C)(C)C [Compound 7b] | > 1000 | 70 | 60 to 62 |  |
| COC(=O)[C@H](Cc1ccccc1)NC(=O)C[C@H](OC(C)=O)[C@H](Cc1ccccc1)NC(=O)OC(C)(C)C [Compound 8e] | 0.606 | > 70 | 89 to 91 | IC50 (µM) (SARS-CoV-2 Mpro): sub-micromolar range; selectivity ratio [1]: > 112; EC50 [2]: 1.79 ± 0.1 µM; Inhibition of SARS-CoV-2 replication [3]: roughly 80%; CC50 at 72 h (in vitro): > 200 µM |
| COC(=O)[C@@H](NC(=O)C[C@H](OC(C)=O)[C@H](Cc1ccccc1)NC(=O)OC(C)(C)C)[C@H](C)OC(C)=O [Compound 8c] | 2.45 | ≥ 60 | 54 to 55 |  |
| COC(=O)[C@H](CO)NC(=O)C[C@H](O)[C@@H](N)Cc1ccccc1.O=C(O)C(F)(F)F [Compound 9a] | > 1000 | 57 | 120 to 121 |  |
| COC(=O)[C@@H]1CCCN1C(=O)C[C@H](OC(C)=O)[C@H](Cc1ccccc1)NC(=O)OC(C)(C)C |  |  | 90 to 92 |  |
| COC(=O)[C@@H](NC(=O)CC(O)C(Cc1ccccc1)NC(=O)OC(C)(C)C)C(C)C (some centres unmarked) [Compound 7h] |  |  |  | Maximum inhibition (%) (SARS-CoV-2 Mpro; efficacy compared to negative control (vehicle, DMSO), compounds 0.001 to 1000 μM): < 50% |
| CC(C)(C)OC(=O)N[C@@H](Cc1ccccc1)[C@@H](O)CC(=O)N[C@@H](Cc1ccccc1)C(=O)NN [Compound 10] | > 1000 | 61 |  |  |
| COC(=O)[C@H](Cc1ccc(O)cc1)NC(=O)C[C@H](O)[C@@H](N)Cc1ccccc1.O=C(O)C(F)(F)F [Compound 9b] | > 1000 | 52 | 98 to 99 |  |
| COC(=O)[C@@H]1CCCN1C(=O)C[C@H](O)[C@@H](N)Cc1ccccc1 [Compound 9f] | > 1000 | 68 |  |  |
| CC(C)C(=O)OC[C@H]1O[C@@H](n2ccc(NO)nc2=O)[C@H](O)[C@@H]1O [molnupiravir] |  |  |  | EC50 (SARS-CoV-2): 1.97 µM |
| COC(=O)[C@H](CO)NC(=O)C[C@H](O)[C@H](Cc1ccccc1)NC(=O)OC(C)(C)C [Compound 7a] | > 1000 | 70 |  |  |
| COC(=O)[C@H](Cc1ccc(OC(C)=O)cc1)NC(=O)C[C@H](OC(C)=O)[C@H](Cc1ccccc1)NC(=O)OC(C)(C)C [Compound 8b] | > 1000 | 65 | 88 to 89 |  |
| COC(=O)[C@H](CC(C)C)NC(=O)C[C@H](O)[C@H](Cc1ccccc1)NC(=O)OC(C)(C)C [Compound 7e] |  | < 50 |  |  |
| COC(=O)[C@@H](NC(=O)C[C@H](O)[C@H](Cc1ccccc1)NC(=O)OC(C)(C)C)[C@H](C)O [Compound 7c] |  | < 50 | 124 to 125 |  |
| COC(=O)[C@@H](NC(=O)C[C@H](OC(C)=O)[C@H](Cc1ccccc1)NC(=O)OC(C)(C)C)C(C)C [Compound 8g] | > 1000 | 66 |  |  |
| COC(=O)[C@@H](NC(=O)C[C@H](O)[C@@H](N)Cc1ccccc1)C(C)C.O=C(O)C(F)(F)F [Compound 9g] | 0.617 | > 70 |  | IC50 (µM) (SARS-CoV-2 Mpro): sub-micromolar range; selectivity ratio [1]: > 132; EC50 [2]: 1.51 ± 0.2 µM; CC50 at 72 h [4]: > 200 µM; Cytotoxicity (in words) (Calu-3 cells): no cytotoxicity; also recorded: non-cytotoxic; Inhibition of SARS-CoV-2 replication [3]: roughly 80% |
| COC(=O)[C@H](CC(C)C)NC(=O)C[C@H](OC(C)=O)[C@H](Cc1ccccc1)NC(=O)OC(C)(C)C [Compound 8d] | 0.391 | ≥ 60 | 94 to 95 |  |
| COC(=O)[C@H](CC(C)C)NC(=O)C[C@H](O)[C@@H](N)Cc1ccccc1.O=C(O)C(F)(F)F [Compound 9d] | 778 | 58 | 147 to 148 |  |
| COC(=O)N[C@H](C(=O)N[C@@H](Cc1ccccc1)[C@@H](O)CN(Cc1ccc(-c2ccccn2)cc1)NC(=O)[C@@H](NC(=O)OC)C(C)(C)C)C(C)(C)C [ATV, atazanavir, reference compound] |  |  |  | selectivity ratio [1]: > 131; EC50 [2]: 1.53 ± 0.3 µM; CC50 at 72 h [4]: > 200 µM |
| COC(=O)[C@H](Cc1ccccc1)NC(=O)C[C@H](O)[C@@H](N)Cc1ccccc1 [Compound 9e] | > 1000 | 51 |  |  |
